Test results as given in US10189785B2, “Heterocyclic compound” (TAKEDA PHARMACEUTICAL COMPANY LIMITED, priority 2015, dated 2019).

What was measured:
[1] = target: T1, SPT (SPT2-expressing membrane fraction: human SPT1, human SPT2 and human ssSPTa) (Homo sapiens, UniProt O15269+O15270); test: SPT enzyme inhibition test (Test Example 1); format: biochemical; settings: for inhibition at 1 µM: read-out: Rate of inhibition (%) at 1 μM
T1 construct: Full-length human SPT1, human SPT2 and human ssSPTa used; made in house; host or cells: FreeStyle 293 cells (pcDNA3.1 vectors, cotransfection); crude membrane fraction used
T1 sequence (O15269 1-473): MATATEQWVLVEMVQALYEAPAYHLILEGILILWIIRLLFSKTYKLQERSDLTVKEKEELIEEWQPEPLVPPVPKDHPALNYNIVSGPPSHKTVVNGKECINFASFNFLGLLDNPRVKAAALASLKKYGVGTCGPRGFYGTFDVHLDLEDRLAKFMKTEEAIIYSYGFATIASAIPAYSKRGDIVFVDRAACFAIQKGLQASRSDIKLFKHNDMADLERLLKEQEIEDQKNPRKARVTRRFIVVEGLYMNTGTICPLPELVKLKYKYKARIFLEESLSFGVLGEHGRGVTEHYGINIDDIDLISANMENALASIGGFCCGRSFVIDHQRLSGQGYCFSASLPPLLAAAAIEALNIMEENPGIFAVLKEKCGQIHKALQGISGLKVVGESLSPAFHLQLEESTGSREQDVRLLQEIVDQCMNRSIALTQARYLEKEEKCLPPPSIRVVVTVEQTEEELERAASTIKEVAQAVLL
T1 sequence (O15270 1-562): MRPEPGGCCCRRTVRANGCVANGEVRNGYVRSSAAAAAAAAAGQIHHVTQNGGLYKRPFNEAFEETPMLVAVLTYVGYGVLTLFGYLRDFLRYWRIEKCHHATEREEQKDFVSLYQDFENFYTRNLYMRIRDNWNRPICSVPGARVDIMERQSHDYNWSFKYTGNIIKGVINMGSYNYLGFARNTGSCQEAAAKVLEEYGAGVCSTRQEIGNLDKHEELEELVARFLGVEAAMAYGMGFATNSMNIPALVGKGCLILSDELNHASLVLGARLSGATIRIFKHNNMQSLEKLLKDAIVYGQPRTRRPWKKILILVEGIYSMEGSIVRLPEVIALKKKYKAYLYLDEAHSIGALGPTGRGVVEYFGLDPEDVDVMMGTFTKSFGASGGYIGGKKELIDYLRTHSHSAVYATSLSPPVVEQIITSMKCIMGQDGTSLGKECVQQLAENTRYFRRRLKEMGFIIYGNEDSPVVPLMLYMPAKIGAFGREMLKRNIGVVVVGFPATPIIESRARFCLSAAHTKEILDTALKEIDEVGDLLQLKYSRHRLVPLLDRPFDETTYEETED
T1 sequence (Q969W0 1-71 partner): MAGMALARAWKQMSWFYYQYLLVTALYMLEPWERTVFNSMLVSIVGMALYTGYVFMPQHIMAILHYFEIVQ
Protocol: After culture for 3 days, the cells were recovered and frozen at −80° C. to obtain expressing cells. The frozen cells were suspended in a 50 mM Hepes buffer (pH 7.5) containing 250 mM sucrose, 5 mM ethylenediaminetetraacetic acid (EDTA), 5 mM dithiothreitol (DTT) and Complete, EDTA-free (Roche Applied Science, Penzberg, Upper Bavaria, Germany). The cells were disrupted (on ice, 20,000 rpm, 20 sec×2) using POLYTORON (Central Scientific Commerce, Inc.). After centrifugation at 2000 rpm (850×g) for 10 minutes, the supernatant was recovered. Subsequently, the supernatant was centrifuged at 40,000 rpm (186,010×g) for 60 minutes, and the supernatant was discarded. The pellets were suspended in a 50 mM Hepes buffer (pH 7.5) containing 5 mM EDTA, 5 mM DTT and Complete, EDTA-free, passed through a 40-μm cell strainer and stored at −80° C. The resultant was used as a SPT2-expressing membrane fraction. The protein concentration was determined using CBB Protein Assay with bovine serum albumin used as standards.
5 μL of each test compound was mixed with 10 μL of the 100 μg/mL SPT2-expressing membrane fraction using an assay buffer (100 mM Hepes (pH 8.0) containing 2.5 mM EDTA, 5 mM DTT and 0.01% fatty acid-free bovine serum albumin), and the mixture was left standing at room temperature for 60 minutes. Subsequently, 5 μL of a substrate solution containing 2 mM L-serine and 20 μM palmitoyl CoA was added thereto, and an enzyme reaction was carried out in a 384-well plate using 20 μL in total of the reaction system. After reaction at room temperature for 15 minutes, the reaction was terminated by the addition of 20 μL of a 2% aqueous formic acid solution. Subsequently, 40 μL of acetonitrile containing 600 nM C17-sphinganine (Avanti Polar Lipids, Inc., Alabaster, Ala., U.S.) was added thereto as an internal standard. The reaction sample was subjected to on-line solid-layer extraction using RapidFire 300 (Agilent Technologies Inc., Santa Clara, Calif., U.S.). […] Mass chromatograms were obtained using Analyst software (version 1.5.0, AB SCIEX). Their mass chromatogram areas were respectively calculated, and the rate of inhibition (%) by the test compound was calculated using an area ratio (the value of the reaction product was divided by the value of the internal standard).

[2] = tested on: lung adenocarcinoma cell line HCC4006; test: HCC4006 cell growth inhibition test (Test Example 2); format: cell-based; settings: 1 μM test compound, HCC4006 cells, culture for 5 days, CellTiter-Glo; for inhibition at 1 µM: Homo sapiens, 120 h, read-out: Rate of inhibition (%) at 1 μM
Protocol: A lung adenocarcinoma cell line HCC4006 (ATCC) was cultured using an RPMI-1640 medium (Wako Pure Chemical Industries, Ltd.) containing 10% fetal bovine serum and penicillin/streptomycin. 250 cells per well were inoculated into 40 μL of a medium in a 384-well culture plate. On the next day, 10 μL of each test compound was added to the cells. After culture for 5 days, the medium was discarded, and 30 μL of CellTiter-Glo Luminescent Cell Viability Assay solution (Promega Corp., Fitchburg, Wis., U.S.) was added to each well. Light emission signals were measured using EnVision (PerkinElmer, Inc., Waltham, Mass., U.S.).
The rate of inhibition (%) by the test compound was calculated according to the following expression: Rate of inhibition (%)=(1−(Count of the test compound−Blank)/(Control−Blank))×100
In the above expression, a count under compound non-addition conditions was indicated as a control, and a count under cell-free conditions was indicated as a blank.

Structure (SMILES)	inhibition at 1 µM [1]	inhibition at 1 µM [2]	Rate of inhibition (%) at 1 μM ([1]; 1 μM test compound, SPT2-expressing membrane fraction)	Rate of inhibition (%) at 1 μM [2]
Cc1cc(C(=O)N2CC[C@@H](NC(=O)c3ncccc3C(F)(F)F)[C@@H](c3ccccc3)C2)cc2nccnc12 [Example 74B, N-((3S,4R)-1-((8-Methylquinoxalin-6-yl)carbonyl)-3-phenylpiperidin-4-yl)-3-(trifluoromethyl)pyridine-2-carboxamide]	100%	45%		
COc1ncc(C(=O)N2CCC(NC(=O)c3ccccc3C(F)(F)F)c3c2cnn3C)cc1Cl (centres unmarked) [Example 85A, N-(4-((5-chloro-6-methoxypyridin-3-yl)carbonyl)-1-methyl-4,5,6,7-tetrahydro-1H-pyrazolo[4,3-b]pyridin-7-yl)-2-(trifluoromethyl)benzamide]	99%	39%		
COc1ccc(C(=O)N2CC[C@@H](NC(=O)c3ncccc3C(F)(F)F)[C@@H](c3ccccc3)C2)nc1OC [Example 44B, N-((3S,4R)-1-((5,6-dimethoxypyridin-2-yl)carbonyl)-3-phenylpiperidin-4-yl)-3-(trifluoromethyl)pyridine-2-carboxamide]	98%	47%		
CN(C)CCOc1ccc(C(=O)N[C@@H]2CCN(C(=O)c3cc(Cl)c4nccnc4c3)C[C@@H]2c2ccccc2)cn1 [Example 25B, N-((3S,4R)-1-((8-chloroquinoxalin-6-yl)carbonyl)-3-phenylpiperidin-4-yl)-6-(2-(dimethylamino)ethoxy) nicotinamide]			100%	53%
COc1cc(C(=O)N2CC[C@H](NC(=O)c3ccccc3OC(F)(F)F)c3c2cnn3C)cnc1OC [Example 171A, N-((7S)-4-((5,6-Dimethoxypyridin-3-yl)carbonyl)-1-methyl-4,5,6,7-tetrahydro-1H-pyrazolo[4,3-b]pyridin-7-yl)-2-(trifluoromethoxy)benzamide]	101%	50%		
Cc1nn(C)c(Cl)c1C(=O)N[C@@H]1CCN(C(=O)c2cc(Cl)c3ncc(C)n3c2)C[C@@H]1c1ccccc1 [Example 342B, 5-chloro-N-((3S,4R)-1-((8-chloro-3-methylimidazo[1,2-a]pyridin-6-yl)carbonyl)-3-phenylpiperidin-4-yl)-1,3-dimethyl-1H-pyrazole-4-carboxamide]	101%	51%		
Cc1nn(C)c(Cl)c1C(=O)N[C@@H]1CCN(C(=O)c2cc(Cl)c3nccnc3c2)C[C@@H]1c1ccccc1 [Example 166B, 5-Chloro-N-((3S,4R)-1-((8-chloroquinoxalin-6-yl)carbonyl)-3-phenylpiperidin-4-yl)-1,3-dimethyl-1H-pyrazole-4-carboxamide]	101%	53%		
O=C(N[C@@H]1CCN(C(=O)c2ccc3nccnc3c2)C[C@@H]1c1ccccc1)c1ccccc1OC(F)(F)F [Example 57B, N-((3S,4R)-3-phenyl-1-(quinoxalin-6-ylcarbonyl)piperidin-4-yl)-2-(trifluoromethoxy) benzamide]	96%	54%		
Cc1nn(C)c(Cl)c1C(=O)N[C@@H]1CCN(C(=O)c2cc(C)c3ncc(C)n3c2)C[C@@H]1c1ccccc1 [Example 344B, 5-chloro-N-((3S,4R)-1-((3,8-dimethylimidazo[1,2-a]pyridin-6-yl)carbonyl)-3-phenylpiperidin-4-yl)-1,3-dimethyl-1H-pyrazole-4-carboxamide]	103%	51%		
COc1ncc(C(=O)N2CCC(NC(=O)c3ccccc3Cl)c3c2cnn3C)cc1Cl (centres unmarked) [Example 84A, 2-chloro-N-(4-((5-chloro-6-methoxypyridin-3-yl)carbonyl)-1-methyl-4,5,6,7-tetrahydro-1H-pyrazolo[4,3-b]pyridin-7-yl)benzamide]	98%	32%		
COc1ncc(C(=O)N2CC[C@H](NC(=O)c3ccc(Cl)cc3C(F)(F)F)c3c2cnn3CC(F)F)cc1Cl [Example 170A, 4-Chloro-N-((7S)-4-((5-chloro-6-methoxypyridin-3-yl)carbonyl)-1-(2,2-difluoroethyl)-4,5,6,7-tetrahydro-1H-pyrazolo[4,3-b]pyridin-7-yl)-2-(trifluoromethyl)benzamide]	99%	50%		
Cn1nc(C(F)(F)F)cc1C(=O)N[C@@H]1CCN(C(=O)c2cc(Cl)c3nccnc3c2)C[C@@H]1c1ccc(F)cc1 [Example 96B, N-((3S,4R)-1-((8-chloroquinoxalin-6-yl)carbonyl)-3-(4-fluorophenyl)piperidin-4-yl)-1-methyl-3-(trifluoromethyl)-1H-pyrazole-5-carboxamide]	102%	49%		
CCn1ncc2c1C(NC(=O)c1ccc(Cl)cc1C(F)(F)F)CCN2C(=O)c1cnc(OC)c(OC)c1 (centres unmarked) [Example 153A, 4-Chloro-N-(4-((5,6-dimethoxypyridin-3-yl)carbonyl)-1-ethyl-4,5,6,7-tetrahydro-1H-pyrazolo[4,3-b]pyridin-7-yl)-2-(trifluoromethyl)benzamide]	101%	53%		
COc1ccc(C(=O)N2CCC(NC(=O)c3ccccc3Cl)c3c2cnn3C)cc1OC (centres unmarked) [Example 2A, 2-Chloro-N-(4-(3,4-dimethoxybenzoyl)-1-methyl-4,5,6,7-tetrahydro-1H-pyrazolo[4,3-b]pyridin-7-yl)benzamide]		36%		
COc1ccc(C(=O)N2CC[C@@H](NC(=O)c3ccccc3Cl)[C@@H](c3ccccc3)C2)cc1OC [Example 2B, 2-chloro-N-((3S,4R)-1-(3,4-dimethoxybenzoyl)-3-phenylpiperidin-4-yl)benzamide]		55%		
COc1cc(C(=O)N2CCC(NC(=O)c3ccccc3OC(F)(F)F)c3c2cnn3C(C)C)cnc1OC (centres unmarked) [Example 132A, N-(4-((5,6-Dimethoxypyridin-3-yl)carbonyl)-1-isopropyl-4,5,6,7-tetrahydro-1H-pyrazolo[4,3-b]pyridin-7-yl)-2-(trifluoromethoxy)benzamide]		52%		
